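Results reflect a 48-hour exposure of cells in 96-well plates to compound at five concentrations. TGI marks complete inhibition of growth.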
Experiments:
Experiment in all cases: inhibition of tumour cell growth, NCI panel, 48 h
786-0 renal = system: 786-0 renal
A549 NSCLC = system: A549 NSCLC
ACHN renal = system: ACHN renal
CAKI-1 renal = system: CAKI-1 renal
CCRF-CEM leukemia = system: CCRF-CEM leukemia
COLO 205 colon = system: COLO 205 colon
DU-145 prostate = system: DU-145 prostate
EKVX NSCLC = system: EKVX NSCLC
HCC-2998 colon = system: HCC-2998 colon
HCT-116 colon = system: HCT-116 colon
HCT-15 colon = system: HCT-15 colon
HL-60(TB) leukemia = system: HL-60(TB) leukemia
HOP-62 NSCLC = system: HOP-62 NSCLC
HOP-92 NSCLC = system: HOP-92 NSCLC
HS 578T breast = system: HS 578T breast
HT29 colon = system: HT29 colon
IGROV1 ovarian = system: IGROV1 ovarian
K-562 leukemia = system: K-562 leukemia
KM12 colon = system: KM12 colon
LOX IMVI melanoma = system: LOX IMVI melanoma
M14 melanoma = system: M14 melanoma
MCF7 breast = system: MCF7 breast
MDA-MB-231 breast = system: MDA-MB-231 breast
MDA-MB-435 = system: MDA-MB-435
MDA-N = system: MDA-N
MOLT-4 leukemia = system: MOLT-4 leukemia
NCI-H226 lung = system: NCI-H226 lung
NCI-H23 lung = system: NCI-H23 lung
NCI-H460 lung = system: NCI-H460 lung
NCI-H522 lung = system: NCI-H522 lung
NCI/ADR-RES ovarian = system: NCI/ADR-RES ovarian
OVCAR-3 ovarian = system: OVCAR-3 ovarian
OVCAR-4 ovarian = system: OVCAR-4 ovarian
OVCAR-5 ovarian = system: OVCAR-5 ovarian
OVCAR-8 ovarian = system: OVCAR-8 ovarian
PC-3 prostate = system: PC-3 prostate
RPMI-8226 leukemia = system: RPMI-8226 leukemia
RXF 393 renal = system: RXF 393 renal
SF-268 CNS = system: SF-268 CNS
SF-295 CNS = system: SF-295 CNS
SF-539 CNS = system: SF-539 CNS
SK-MEL-2 melanoma = system: SK-MEL-2 melanoma
SK-MEL-28 melanoma = system: SK-MEL-28 melanoma
SK-MEL-5 melanoma = system: SK-MEL-5 melanoma
SK-OV-3 ovarian = system: SK-OV-3 ovarian
SN12C renal = system: SN12C renal
SNB-19 CNS = system: SNB-19 CNS
SNB-75 CNS = system: SNB-75 CNS
SR leukemia = system: SR leukemia
SW-620 colon = system: SW-620 colon
T-47D breast = system: T-47D breast
TK-10 renal = system: TK-10 renal
U251 CNS = system: U251 CNS
UACC-257 melanoma = system: UACC-257 melanoma
UACC-62 melanoma = system: UACC-62 melanoma
UO-31 renal = system: UO-31 renal
A498 renal = system: A498 renal
MALME-3M melanoma = system: MALME-3M melanoma

OC(c1ccoc1)c1cc2ccccc2s1 (stereo unspecified)
TGI (786-0 renal): > 10 µM | TGI (A549 NSCLC): > 10 µM | TGI (ACHN renal): > 10 µM | TGI (CAKI-1 renal): > 10 µM | TGI (CCRF-CEM leukemia): > 10 µM | TGI (COLO 205 colon): > 10 µM | TGI (DU-145 prostate): > 10 µM | TGI (EKVX NSCLC): > 10 µM | TGI (HCC-2998 colon): > 10 µM | TGI (HCT-116 colon): > 10 µM | TGI (HCT-15 colon): > 10 µM | TGI (HL-60(TB) leukemia): > 10 µM | TGI (HOP-62 NSCLC): > 10 µM | TGI (HOP-92 NSCLC): > 10 µM | TGI (HS 578T breast): > 10 µM | TGI (HT29 colon): > 10 µM | TGI (IGROV1 ovarian): > 10 µM | TGI (K-562 leukemia): > 10 µM | TGI (KM12 colon): > 10 µM | TGI (LOX IMVI melanoma): > 10 µM | TGI (M14 melanoma): > 10 µM | TGI (MCF7 breast): > 10 µM | TGI (MDA-MB-231 breast): > 10 µM | TGI (MDA-MB-435): > 10 µM | TGI (MDA-N): > 10 µM | TGI (MOLT-4 leukemia): > 10 µM | TGI (NCI-H226 lung): > 10 µM | TGI (NCI-H23 lung): > 10 µM | TGI (NCI-H460 lung): > 10 µM | TGI (NCI-H522 lung): > 10 µM | TGI (NCI/ADR-RES ovarian): > 10 µM | TGI (OVCAR-3 ovarian): > 10 µM | TGI (OVCAR-4 ovarian): > 10 µM | TGI (OVCAR-5 ovarian): > 10 µM | TGI (OVCAR-8 ovarian): > 10 µM | TGI (PC-3 prostate): > 10 µM | TGI (RPMI-8226 leukemia): > 10 µM | TGI (RXF 393 renal): > 10 µM | TGI (SF-268 CNS): > 10 µM | TGI (SF-295 CNS): > 10 µM | TGI (SF-539 CNS): > 10 µM | TGI (SK-MEL-2 melanoma): > 10 µM | TGI (SK-MEL-28 melanoma): > 10 µM | TGI (SK-MEL-5 melanoma): > 10 µM | TGI (SK-OV-3 ovarian): > 10 µM | TGI (SN12C renal): > 10 µM | TGI (SNB-19 CNS): > 10 µM | TGI (SNB-75 CNS): > 10 µM | TGI (SR leukemia): > 10 µM | TGI (SW-620 colon): > 10 µM | TGI (T-47D breast): > 10 µM | TGI (TK-10 renal): > 10 µM | TGI (U251 CNS): > 10 µM | TGI (UACC-257 melanoma): > 10 µM | TGI (UACC-62 melanoma): > 10 µM | TGI (UO-31 renal): > 10 µM

CC12CP(=O)(c3ccccc3)CC1c1ccccc1C2c1ccccc1 (stereo unspecified)
TGI (786-0 renal): 32.8 µM | TGI (A498 renal): > 100 µM | TGI (A549 NSCLC): 36.2 µM | TGI (ACHN renal): 41.1 µM | TGI (CCRF-CEM leukemia): 23.5 µM | TGI (DU-145 prostate): 64 µM | TGI (EKVX NSCLC): 44.6 µM | TGI (HCC-2998 colon): 33.9 µM | TGI (HCT-116 colon): 30.4 µM | TGI (HCT-15 colon): 27.2 µM | TGI (HL-60(TB) leukemia): 28.5 µM | TGI (HOP-62 NSCLC): 35.4 µM | TGI (HOP-92 NSCLC): 50 µM | TGI (HS 578T breast): > 100 µM | TGI (HT29 colon): 28.8 µM | TGI (IGROV1 ovarian): 46 µM | TGI (K-562 leukemia): 25.5 µM | TGI (KM12 colon): 33.6 µM | TGI (M14 melanoma): 31.8 µM | TGI (MALME-3M melanoma): 30.3 µM | TGI (MCF7 breast): > 100 µM | TGI (MDA-MB-231 breast): 40.1 µM | TGI (MDA-MB-435): 30.1 µM | TGI (MDA-N): 33.6 µM | TGI (MOLT-4 leukemia): 31 µM | TGI (NCI-H226 lung): 44.1 µM | TGI (NCI-H23 lung): 41.8 µM | TGI (NCI-H460 lung): 27.6 µM | TGI (NCI/ADR-RES ovarian): 32.7 µM | TGI (OVCAR-3 ovarian): 31.7 µM | TGI (OVCAR-5 ovarian): > 100 µM | TGI (OVCAR-8 ovarian): 28.6 µM | TGI (PC-3 prostate): 27.1 µM | TGI (RXF 393 renal): 46.6 µM | TGI (SF-268 CNS): 67 µM | TGI (SF-295 CNS): 29.8 µM | TGI (SF-539 CNS): 34.1 µM | TGI (SK-MEL-2 melanoma): 49.4 µM | TGI (SK-MEL-28 melanoma): 75 µM | TGI (SK-MEL-5 melanoma): 55.1 µM | TGI (SK-OV-3 ovarian): > 100 µM | TGI (SN12C renal): 32.2 µM | TGI (SNB-19 CNS): > 100 µM | TGI (SR leukemia): 29.8 µM | TGI (SW-620 colon): 33.2 µM | TGI (T-47D breast): 37.5 µM | TGI (TK-10 renal): > 100 µM | TGI (U251 CNS): 36.7 µM | TGI (UACC-62 melanoma): > 100 µM | TGI (UO-31 renal): 30.4 µM

Reference: PubChem BioAssay (NCI)
